Laboratory results taken from PMC12525602, “Identification of Selective α-Glucosidase Inhibitors via Virtual Screening with Machine Learning” (Molecules, 2025).
Read-outs that look alike come from different tables or passages of the source.

How the values were obtained:
α-glucosidase [1] = biological target: α-glucosidase; parameters: method as in ref 14 (Lim et al. 2022); settings: ref 14 (Lim et al. 2022); cited from earlier work
α-amylase [2] = biological target: α-amylase; parameters: method as in ref 14 (Lim et al. 2022); settings: ref 14 (Lim et al. 2022); cited from earlier work
α-glucosidase [3] = biological target: T1, α-glucosidase (Saccharomyces cerevisiae, UniProt P53341); test: Fluorescence quenching experiment (Stern-Volmer); format: binding; settings: for Kd: Ka (binding constant); for Kq (bimolecular quenching constant): given as number×10 with exponent 12
T1 construct: purchased Sigma-Aldrich Co. (St. Louis, MI, USA)
T1 sequence (P53341 whole entry): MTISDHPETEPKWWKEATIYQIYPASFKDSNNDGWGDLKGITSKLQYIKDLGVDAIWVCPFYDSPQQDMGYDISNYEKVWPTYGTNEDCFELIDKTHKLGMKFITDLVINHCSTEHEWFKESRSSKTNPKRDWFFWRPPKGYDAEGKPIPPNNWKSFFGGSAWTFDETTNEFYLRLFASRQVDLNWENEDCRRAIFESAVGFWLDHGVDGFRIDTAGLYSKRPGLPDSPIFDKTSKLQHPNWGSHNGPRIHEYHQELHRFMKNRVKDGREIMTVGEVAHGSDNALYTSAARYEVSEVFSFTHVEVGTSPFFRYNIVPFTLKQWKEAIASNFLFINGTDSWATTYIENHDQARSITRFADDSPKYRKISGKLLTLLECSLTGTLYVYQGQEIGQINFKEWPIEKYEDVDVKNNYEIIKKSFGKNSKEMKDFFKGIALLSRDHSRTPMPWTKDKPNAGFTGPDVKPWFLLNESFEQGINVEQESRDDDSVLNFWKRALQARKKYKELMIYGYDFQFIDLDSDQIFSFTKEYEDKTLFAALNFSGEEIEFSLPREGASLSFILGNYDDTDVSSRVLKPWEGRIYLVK
Method: The fluorescence quenching experiment was modified somewhat based on previous studies. Fluorescence was determined by titrating α-glucosidase (1.0 mL, 2 U/mL) with different concentrations of inhibited solutions (1.0 mL, 0–200 mM) and left to equilibrate for 5 min. […] Fluorescence burst analysis was performed based on the Stern-Volmer (3) equation.(3) F0/F=1+Kqτ0Q=1+KsvQ
F and F0 are the fluorescence intensities with and without inhibitor, respectively, Ksv is the Stern-Volmer bursting constant, Kq is the bimolecular bursting constant, and [Q] is the concentration of inhibitor.
When the bursting mode conforms to static bursting, the binding constant Ka and the number of binding sites for each enzyme can be calculated from Equation (4).(4) logF0−F/F=logKa+nlogQ
Ka is the binding constant and n is the number of binding sites.
The thermodynamic parameters ∆H, ∆S, and ∆G denote the change in heat, entropy, and free energy, respectively.

α-amylase [4] = biological target: T2, α-amylase (Sus scrofa, UniProt P00690); test: In vitro α-amylase activity assay (G3-CNP, absorbance 405 nm); format: biochemical, porcine; parameters: inhibition of α-amylase: dose or concentration left out as unconfirmed; settings: for inhibition of α-amylase: […] µM
T2 construct: α-amylase isolated from porcine pancreas; purchased Sigma-Aldrich Co. (St. Louis, MI, USA); host or cells: porcine pancreas
T2 sequence (P00690 16-511): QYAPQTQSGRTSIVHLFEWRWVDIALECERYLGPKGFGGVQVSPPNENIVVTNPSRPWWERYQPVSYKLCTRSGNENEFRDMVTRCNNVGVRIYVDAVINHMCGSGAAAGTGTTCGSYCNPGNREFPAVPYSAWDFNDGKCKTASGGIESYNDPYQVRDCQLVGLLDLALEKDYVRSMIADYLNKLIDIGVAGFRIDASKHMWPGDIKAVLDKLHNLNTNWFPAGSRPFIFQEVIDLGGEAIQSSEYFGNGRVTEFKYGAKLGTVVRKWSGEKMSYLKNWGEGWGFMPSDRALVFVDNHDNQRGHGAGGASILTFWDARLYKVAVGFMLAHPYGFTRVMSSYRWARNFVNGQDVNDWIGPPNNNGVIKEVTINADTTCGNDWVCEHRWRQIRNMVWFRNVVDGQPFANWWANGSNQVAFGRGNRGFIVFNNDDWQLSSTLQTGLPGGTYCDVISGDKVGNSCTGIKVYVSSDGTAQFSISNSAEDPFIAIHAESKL
Method: (§1) The inhibitors used in this study were purchased from the ChemDiv website. Unless otherwise stated, all other reagents used in this experiment were analytically pure reagents purchased from Sigma-Aldrich Co. (St. Louis, MI, USA).
The in vitro α-amylase activity assay was determined spectrophotometrically as previously described with only minor modifications. A phosphate-buffer solution at pH 6.8 was configured to obtain α-amylase 5 U/mL and 2-chloro-4-nitrophenyl α-D-maltotrioside (G3-CNP) 0.6 mM. […] Gradient dilution with phosphate-buffer solution was performed to obtain sample solutions of different concentrations.
(§2) The IC50 values of the tested compounds were calculated using nonlinear fitting (logit method).

α-glucosidase [5] = biological target: T1, α-glucosidase; test: biochemical; format: biochemical
Method: To further investigate the inhibition kinetics of the candidate compounds, α-glucosidase activity was determined at different substrate concentrations. The Lineweaver-Burk expression method in Equation (1) was used to test the reaction of a series of compounds with the substrate pNαGP, and the values of maximum velocity (Vmax) and Michaelis-Menten constant (Km) were calculated.(1) 1/v=Km/Vmax1/[S]+1/Vmax where Vmax and Km are the maximum velocity of the enzyme and the Michaelis-Menten constant in the absence of inhibitor, respectively. [S] is the concentration of substrate and inhibitor.(2) Slope=Km/Vmax+Km/Vmax·KiI where v is the initial reaction rate, Vmax is the maximum initial reaction rate, [I] is the concentration of […], and Km is the Michaelis-Menten constant.

α-glucosidase [6] = biological target: T1, α-glucosidase; test: Synchronous fluorescence spectroscopy (RSQF); format: binding
Method: Changes in the microenvironment of tyrosine (Tyr) and tryptophan (Trp) residue fluorophores were detected simultaneously. The excitation and emission wavelength intervals were set to 15 nm and 60 nm, respectively, and the synchronized fluorescence spectra from 260 to 320 nm were determined. The synchronized fluorescence burst ratio (RSFQ) was calculated as follows:(7) RSQF=1−F/F0

α-glucosidase [7] = biological target: T1, α-glucosidase; test: In vitro α-glucosidase activity assay (pNαGP, absorbance 405 nm); format: biochemical; settings: for inhibition at 250 µM: read-out: inhibition of α-glucosidase
Method: as §1
The in vitro α-glucosidase activity assay was determined spectrophotometrically as previously described with only minor modifications. A phosphate-buffer solution at pH 6.8 was configured to obtain 0.5 U/mL of α-glucosidase and 0.6 mM of […] (pNαGP). […] Gradient dilution with phosphate-buffer solution was performed to obtain sample solutions of different concentrations. First, different concentrations of compounds (10 µL), enzyme solution (40 µL) and potassium phosphate buffer (100 µL) were pre-incubated in a 96-well plate for 10 min at 37 °C. Then, 50 µL of substrate (pNαGP, 0.6 mM) was added to each microtiter well and incubated for 20 min at 37 °C, and the absorbance at 405 nm was measured to detect the change in enzyme activity.
The enzyme inhibitory activity of the tested compounds was calculated as follows: α−glucosidase inhibition rate%=Abs control−Abs sample/Abs control×100
as §2

α-amylase [8] = biological target: α-amylase; parameters: method as in ref 15 (Sun et al. 2017); settings: ref 15 (Sun et al. 2017); cited from earlier work
α-glucosidase [9] = biological target: α-glucosidase; parameters: method as in ref 15 (Sun et al. 2017); settings: ref 15 (Sun et al. 2017); cited from earlier work
C57BL/6J mice = test: In vivo starch digestion inhibition experiment (postprandial blood glucose); settings: normal mice, 10 mg/kg by gavage, 2 g/kg starch, 0-120 min; p < 0.001 versus controls
Text: After the in vitro validation, in order to further characterize the effect of the inhibitor on postprandial glycemic control, we performed in vivo characterization by gavage in mice. Eight-week-old male C57BL/6J mice (purchased from Beijing Huafukang Laboratory Animals, Beijing, China) were used for the experiments. The animal experimental procedures were approved by the Ethics Committee on Laboratory Animal Management and Welfare of Beijing Huafuqian Times Technology Co. Ltd. (Ethical Review Approval No. HYSD2023-04), and local and national ethical guidelines were strictly observed. All mice were placed in a controlled environment with a temperature of 25 °C, relative humidity of 60%, and a light/dark cycle of 12/12 h. Following overnight fasting, gastric intubation was performed on mice in the control group, acarbose group, […] group, […] group, […] group, and […] group. The control group received saline infusion to eliminate confounding factors during administration. […] The remaining groups each received a corresponding concentration (10 mg/kg) of the test compound dissolved in saline solution to evaluate inhibitor efficacy. 2 g/kg of starch was given after 5 min, and the […] at 0 min, 10 min, 20 min, 30 min, 40 min, 60 min, 90 min and 120 min.

Kd (α-glucosidase [3]; T 300.15 K) [µM] | Kd (α-glucosidase [3]; T 305.15 K) [µM] | Kd (α-glucosidase [3]; T 310.15 K) [µM] | Ksv (quenching constant) (α-glucosidase [3]; T 300.15 K) | n (number of binding sites) (α-glucosidase [3]; T 300.15 K) | Ksv (quenching constant) (α-glucosidase [3]; T 305.15 K) | n (number of binding sites) (α-glucosidase [3]; T 305.15 K) | Kq (bimolecular quenching constant) (α-glucosidase [3]; T 305.15 K) | Ksv (quenching constant) (α-glucosidase [3]; T 310.15 K) | n (number of binding sites) (α-glucosidase [3]; T 310.15 K) | Kq (bimolecular quenching constant) (α-glucosidase [3]; T 310.15 K) | IC50 (α-amylase [4]) [µM] | inhibition of α-amylase (α-amylase [4]) | Ki (α-glucosidase [5]) [µM] | Type of inhibition (α-glucosidase [5]) | Vmax (α-glucosidase [5]; [I] 7.5 μM) | Vmax (α-glucosidase [5]; [I] 15 μM) | Vmax (α-glucosidase [5]; [I] 30 μM) | Vmax (α-glucosidase [5]; [I] 50 μM) | RSQF values, Trp (Δλ = 60 nm) versus Tyr (Δλ = 15 nm) (α-glucosidase [6]) | SMILES | further results
– | – | – | – | – | – | – | – | – | – | – | – | – | – | – | – | – | – | – | – | O=c1c(O)c(-c2ccc(O)c(O)c2)oc2ccccc12 [3′,4′-dihydroxyflavonol] | IC50 (α-glucosidase [1]): 34.3 µM; IC50 (α-amylase [2]): 119 µM
1.98 | 2.07 | 3.91 | 10.50 ±0.01 104 /M | 1.15 | 7.67 ±0.01 104 /M | 1.17 | 7.67 ×10^12 (M·S)-1 | 5.51 ±0.01 104 /M | 1.15 | 5.51 ×10^12 (M·S)-1 | > 500 | minimal inhibition | 61.3 ± 14.4 | Competitive | 8.94±0.06 ×10-1µM/min | 8.85±0.02 ×10-1µM/min | 8.62±0.04 ×10-1µM/min | 8.81±0.03 ×10-1µM/min | significantly higher | O=[N+]([O-])c1ccccc1C1Oc2ccccc2C2CC(c3ccccc3)=NN21 (stereo not drawn) [K411] | Vmax (α-glucosidase [5]; [I] 70 μM): 8.43±0.04 ×10-1µM/min; IC50 (α-glucosidase [7]): 67.8 ± 2.18 µM; inhibition at 250 µM (α-glucosidase [7]): ~100%
1.59 | 1.62 | 3.94 | 11.46 ±0.01 104 /M | 1.17 | 7.99 ±0.01 104 /M | 1.20 | 7.99 ×10^12 (M·S)-1 | 6.87 ±0.01 104 /M | 1.14 | 6.87 ×10^12 (M·S)-1 | > 500 | minimal inhibition | 59.7 ± 10.6 | Competitive | 11.41±0.04 ×10-1µM/min | 11.35±0.08 ×10-1µM/min | 10.92±0.06 ×10-1µM/min | 10.84±0.07 ×10-1µM/min | significantly higher | O=C1Nc2ccc(Br)cc2/C1=C\c1nc2ccccc2c(=O)n1-c1ccc(C(=O)O)cc1 [K413] | IC50 (α-glucosidase [7]): 66.3 ± 7.17 µM; inhibition at 250 µM (α-glucosidase [7]): ~100%
– | – | – | – | – | – | – | – | – | – | – | – | – | – | – | – | – | – | – | – | O=C(/C=C/c1ccc(O)cc1)c1c(O)cc(O)cc1O [chalconaringenin] | IC50 (α-amylase [8]): > 100 µM; IC50 (α-glucosidase [9]): 20 µM

SMILES | Kd (α-glucosidase [3]; T 300.15 K) [µM] | Kd (α-glucosidase [3]; T 305.15 K) [µM] | Kd (α-glucosidase [3]; T 310.15 K) [µM] | Ksv (quenching constant) (α-glucosidase [3]; T 300.15 K) | n (number of binding sites) (α-glucosidase [3]; T 300.15 K) | Ksv (quenching constant) (α-glucosidase [3]; T 305.15 K) | n (number of binding sites) (α-glucosidase [3]; T 305.15 K) | Kq (bimolecular quenching constant) (α-glucosidase [3]; T 305.15 K) | Ksv (quenching constant) (α-glucosidase [3]; T 310.15 K) | n (number of binding sites) (α-glucosidase [3]; T 310.15 K) | Kq (bimolecular quenching constant) (α-glucosidase [3]; T 310.15 K) | IC50 (α-amylase [4]) [µM] | inhibition of α-amylase (α-amylase [4]) | Ki (α-glucosidase [5]) [µM] | Type of inhibition (α-glucosidase [5]) | Vmax (α-glucosidase [5]; [I] 7.5 μM) | Vmax (α-glucosidase [5]; [I] 15 μM) | Vmax (α-glucosidase [5]; [I] 30 μM) | Vmax (α-glucosidase [5]; [I] 50 μM) | RSQF values, Trp (Δλ = 60 nm) versus Tyr (Δλ = 15 nm) (α-glucosidase [6]) | further results
C[C@H]1O[C@H](O[C@H]2[C@H](O)[C@@H](O)[C@@H](O[C@H]3[C@H](O)[C@@H](O)C(O)O[C@@H]3CO)O[C@@H]2CO)[C@H](O)[C@@H](O)[C@@H]1N[C@H]1C=C(CO)[C@@H](O)[C@H](O)[C@H]1O (stereo partly drawn) [Acarbose, acarbose, reference compound] | – | – | – | 0.01 ±0.01 104 /M | 1.04 | 0.02 ±0.01 104 /M | 0.98 | 0.02 ×10^12 (M·S)-1 | – | – | – | – | – | – | Mixed | – | – | – | – | very low | blood glucose area under the curve (AUC), total glycemic exposure (C57BL/6J mice): significantly reduced; Kq (bimolecular quenching constant) (α-glucosidase [3]; T 300.15 K): 0.01 ×10^12 (M·S)-1; Vmax (α-glucosidase [5]; [I] […] μM): 5.92±0.06 ×10-1µM/min; Vmax (α-glucosidase [5]; [I] 500 μM): 6.18±0.04 ×10-1µM/min; Vmax (α-glucosidase [5]; [I] 1000 μM): 5.90±0.03 ×10-1µM/min; Vmax (α-glucosidase [5]; [I] 2000 μM): 2.42±0.06 ×10-1µM/min; Vmax (α-glucosidase [5]; [I] […]): 5.96±0.06 ×10-1µM/min
